The values below are quoted from earlier work in patent publication US20020086849A1, “Method for introducing antisense oligonucleotides into eucaryotic cells” (priority 2000, published 2002).

The conditions of this data set: as described in U.S. Pat. No. 5,753,613.

On to `CCCCCCCCCCCCCCCCCC[N+](C)(C)CCCCCCCCCCCCCCCCCC.[Br-]` [DDAB, dimethyldioctadecylammonium bromide], for which the transfection efficiency result was “poor transfection efficiency”.
